For the data set the following is noted: thioether bond.
The mark [1] stands for this setting: from H-Gly-Pro-Ala(3-Cl)-Leu-Gly-Val-Leu-Gly-Lys-Leu-Hcy-Pro-Gly-OH, 29-membered ring, Na2CO3 (1 mg/mL, pH 10.5), ACN/H2O 1:1, 25.0 °C.

Structures are written as SMILES. Like-named read-outs stand apart in the source and are kept apart here.

In turn, `CC(C)C[C@@H]1NC(=O)[C@@H](NC(=O)[C@@H]2CCCN2C(=O)CN)CCSCC[C@@H](C(=O)N2CCC[C@H]2C(=O)NCC(=O)O)NC(=O)[C@H](CC(C)C)NC(=O)[C@H](CCCCN)NC(=O)CNC(=O)[C@H](CC(C)C)NC(=O)[C@H](C(C)C)NC(=O)CNC1=O` [2G3-EETE] returned a ring closure, yield after HPLC (from H-Gly-Pro-Abu(4-Cl)-Leu-Gly-Val-Leu-Gly-Lys-Leu-Hcy-Pro-Gly-OH, 30-membered ring, Na2CO3 (1 mg/mL, pH 10.5), ACN/H2O 1:1, 25.0 °C) of 75%.
For `CC(C)C[C@@H]1NC(=O)[C@@H](NC(=O)[C@@H]2CCCN2C(=O)CN)CCSC[C@@H](C(=O)N2CCC[C@H]2C(=O)NCC(=O)O)NC(=O)[C@H](CC(C)C)NC(=O)[C@H](CCCCN)NC(=O)CNC(=O)[C@H](CC(C)C)NC(=O)[C@H](C(C)C)NC(=O)CNC1=O` [2G3-EMTE], where the note is “from H-Gly-Pro-Abu(4-Cl)-Leu-Gly-Val-Leu-Gly-Lys-Leu-Cys-Pro-Gly-OH, 29-membered ring, Na2CO3 (1 mg/mL, pH 10.5), ACN/H2O 1:1, 25.0 °C”, the ring closure, yield after HPLC is 84%.
In turn, `CC(C)C[C@@H]1NC(=O)[C@@H](NC(=O)[C@@H]2CCCN2C(=O)CN)CSCC[C@@H](C(=O)N2CCC[C@H]2C(=O)NCC(=O)O)NC(=O)[C@H](CC(C)C)NC(=O)[C@H](CCCCN)NC(=O)CNC(=O)[C@H](CC(C)C)NC(=O)[C@H](C(C)C)NC(=O)CNC1=O` [2G3-METE] yielded a ring closure, yield after HPLC (from H-Gly-Pro-Cys-Leu-Gly-Val-Leu-Gly-Lys-Leu-Abu(4-Cl)-Pro-Gly-OH, 29-membered ring, Na2CO3 (1 mg/mL, pH 10.5), ACN/H2O 1:1, 25.0 °C) of 36%.
In turn, `CC(C)C[C@@H]1NC(=O)[C@@H](NC(=O)[C@@H]2CCCN2C(=O)CN)CSC[C@@H](C(=O)N2CCC[C@H]2C(=O)NCC(=O)O)NC(=O)[C@H](CC(C)C)NC(=O)[C@H](CCCCN)NC(=O)CNC(=O)[C@H](CC(C)C)NC(=O)[C@H](C(C)C)NC(=O)CNC1=O` [2G3-MMTE] yielded a ring closure, yield after HPLC (from H-Gly-Pro-Ala(3-Cl)-Leu-Gly-Val-Leu-Gly-Lys-Leu-Cys-Pro-Gly-OH, 28-membered ring, Na2CO3 (1 mg/mL, pH 10.5), ACN/H2O 1:1, 25.0 °C) of 87%.
Turning to `CC(C)C[C@@H]1NC(=O)[C@@H](NC(=O)[C@@H]2CCCN2C(=O)CNC(=O)[C@H](C)N)CCSC[C@@H](C(=O)N2CCC[C@H]2C(=O)NCC(=O)O)NC(=O)[C@H](CC(C)C)NC(=O)[C@H](CCCCN)NC(=O)CNC(=O)[C@H](CC(C)C)NC(=O)[C@H](C(C)C)NC(=O)CNC1=O` [3G3-EMTE], the ring closure, yield after HPLC (from H-Ala-Gly-Pro-Abu(4-Cl)-Leu-Gly-Val-Leu-Gly-Lys-Leu-Cys-Pro-Gly-OH, 29-membered ring, Na2CO3 (1 mg/mL, pH 10.5), ACN/H2O 1:1, 0.71 mM, 25.0 °C) was determined as 94%.
Consider `CC(C)C[C@@H]1NC(=O)[C@@H](NC(=O)[C@@H]2CCCN2C(=O)CNC(=O)[C@H](C)NC(=O)OCC2c3ccccc3-c3ccccc32)CCSC[C@@H](C(=O)N2CCC[C@H]2C(=O)NCC(=O)O)NC(=O)[C@H](CC(C)C)NC(=O)[C@H](CCCCN)NC(=O)CNC(=O)[C@H](CC(C)C)NC(=O)[C@H](C(C)C)NC(=O)CNC1=O` [3G3-EMTE], for which the ring closure, yield after HPLC (from Fmoc-Ala-Gly-Pro-Abu(4-Cl)-Leu-Gly-Val-Leu-Gly-Lys-Leu-Cys-Pro-Gly-OH, 29-membered ring, Na2CO3 (1 mg/mL, pH 10.5), ACN/H2O 1:1, 0.63 mM, 25.0 °C, 2 steps) stood at 33%.
As to `CC(C)C[C@@H]1NC(=O)[C@@H](NC(=O)[C@@H]2CCCN2C(=O)CNC(=O)[C@H](C)N)CSC[C@@H](C(=O)N2CCC[C@H]2C(=O)NCC(=O)O)NC(=O)[C@H](CC(C)C)NC(=O)[C@H](CCCCN)NC(=O)CNC(=O)[C@H](CC(C)C)NC(=O)[C@H](C(C)C)NC(=O)CNC1=O` [3G3-MMTE], the ring closure, yield after HPLC (from H-Ala-Gly-Pro-Ala(3-Cl)-Leu-Gly-Val-Leu-Gly-Lys-Leu-Cys-Pro-Gly-OH, 28-membered ring, Na2CO3 (1 mg/mL, pH 10.5), ACN/H2O 1:1, 25.0 °C) was determined as 89%.
Take `CC[C@H](C)[C@@H]1NC(=O)[C@H](CC(C)C)NC(=O)[C@@H](NC(=O)[C@@H]2CCCN2C(=O)CN)CSC[C@@H](C(N)=O)NC(=O)[C@H](CCCNC(=N)N)NC(=O)[C@H](CC(=O)O)NC(=O)[C@@H]2CCCN2C(=O)[C@H](C)NC(=O)[C@H](CC(C)C)NC1=O` [CB10-MMTE]: the ring closure, yield after HPLC (from H-Gly-Pro-Ala(3-Br)-Leu-Ile-Leu-Ala-Pro-Asp-Arg-Cys-NH2, 28-membered ring, Na2CO3 (pH 10.5), H2O, 0.15 mM) was found to be 27%.
Compound `CC(C)C[C@@H]1NC(=O)[C@H](CCCCN)NC(=O)CNC(=O)[C@H](CC(C)C)NC(=O)[C@H](C(C)C)NC(=O)CNC(=O)[C@H](CC(C)C)NC(=O)[C@@H](N)CCSCC[C@@H](C(N)=O)NC1=O` [G3-EETE] had a ring closure, yield after HPLC (from H-Abu(4-Cl)-Leu-Gly-Val-Leu-Gly-Lys-Leu-Hcy-NH2, 30-membered ring, Na2CO3 (1 mg/mL, pH 10.5), ACN/H2O 1:1, 25.0 °C) of 48%.
`CC(C)C[C@@H]1NC(=O)[C@H](CCCCN)NC(=O)CNC(=O)[C@H](CC(C)C)NC(=O)[C@H](C(C)C)NC(=O)CNC(=O)[C@H](CC(C)C)NC(=O)[C@@H](N)CCSC[C@@H](C(N)=O)NC1=O` [G3-EMTE] registered a ring closure, yield after HPLC (from H-Abu(4-Cl)-Leu-Gly-Val-Leu-Gly-Lys-Leu-Cys-NH2, 29-membered ring, Na2CO3 (1 mg/mL, pH 10.5), ACN/H2O 1:1, 25.0 °C) of 51%.
For the compound `CC(C)C[C@@H]1NC(=O)[C@H](CCCCN)NC(=O)CNC(=O)[C@H](CC(C)C)NC(=O)[C@H](C(C)C)NC(=O)CNC(=O)[C@H](CC(C)C)NC(=O)[C@@H](N)CSCC[C@@H](C(N)=O)NC1=O` [G3-METE], the ring closure, yield after HPLC (from H-Ala(3-Cl)-Leu-Gly-Val-Leu-Gly-Lys-Leu-Hcy-NH2, 29-membered ring, Na2CO3 (1 mg/mL, pH 10.5), ACN/H2O 1:1, 25.0 °C) was found to be 52%.
For `CC(C)C[C@@H]1NC(=O)[C@H](CCCCN)NC(=O)CNC(=O)[C@H](CC(C)C)NC(=O)[C@H](C(C)C)NC(=O)CNC(=O)[C@H](CC(C)C)NC(=O)[C@@H](N)CSC[C@@H](C(N)=O)NC1=O` [G3-MMTE], the ring closure, yield after HPLC (from H-Ala(3-Cl)-Leu-Gly-Val-Leu-Gly-Lys-Leu-Cys-NH2, 28-membered ring, Na2CO3 (1 mg/mL, pH 10.5), ACN/H2O 1:1, 25.0 °C) is 49%.
As to `CC(C)C[C@@H]1NC(=O)[C@@H](NC(=O)[C@@H]2CCCN2C(=O)CNC(=O)[C@H](C)NC(=O)OCC2c3ccccc3-c3ccccc32)CCSC[C@@H](C(=O)N2CCC[C@H]2C(=O)NCC(=O)O)NC(=O)[C@H](CC(C)C)NC(=O)[C@H](CCCCN)NC(=O)CNC(=O)[C@H](CC(C)C)NC(=O)[C@H](C(C)C)NC(=O)CNC1=O` [N^α -Fmoc-3G3-EMTE], the ring closure, yield after HPLC (from Fmoc-Ala-Gly-Pro-Abu(4-Cl)-Leu-Gly-Val-Leu-Gly-Lys-Leu-Cys-Pro-Gly-OH, 29-membered ring, Na2CO3 (1 mg/mL, pH 10.5), ACN/H2O 1:1, 0.63 mM, 25.0 °C) was 19%.
Under setting [1], `CC(C)C[C@@H]1NC(=O)[C@@H](NC(=O)[C@@H]2CCCN2C(=O)CN)CSCC[C@@H](C(=O)N2CCC[C@H]2C(=O)NCC(=O)O)NC(=O)[C@H](CC(C)C)NC(=O)[C@H](CCCCN)NC(=O)CNC(=O)[C@H](CC(C)C)NC(=O)[C@H](C(C)C)NC(=O)CNC1=O` [d-2G3-METE] displayed a ring closure, yield after HPLC of 16%.
Still for that read-out and setting: then `CC(C)C[C@@H]1NC(=O)[C@@H](NC(=O)[C@@H]2CCCN2C(=O)CN)CSCC[C@@H](C(=O)N2CCC[C@H]2C(=O)NCC(=O)O)NC(=O)[C@H](CC(C)C)NC(=O)[C@H](CCCCN)NC(=O)CNC(=O)[C@H](CC(C)C)NC(=O)[C@H](C(C)C)NC(=O)CNC1=O` [l-2G3-METE], with 29%.
